By Kd is commonly meant the free concentration of one partner at which half of the binding sites on the other are occupied at equilibrium, for simple one-to-one binding.

The target of the assay is T1, SlpA_amy_III (SlpA_amy_D3) (Lactobacillus amylovorus, UniProt E4SK47).
T1 construct: gene LA2_00970; His-tagged, 15N-labelled, expressed in E. coli BL21 DE
T1 sequence (E4SK47 322-456): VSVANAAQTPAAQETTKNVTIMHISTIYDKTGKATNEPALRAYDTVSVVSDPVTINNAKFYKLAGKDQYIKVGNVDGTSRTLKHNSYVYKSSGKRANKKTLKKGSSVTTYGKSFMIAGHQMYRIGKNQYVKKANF
Nature of the assay: 1H-15N HSQC NMR titration, mean Kd of per-residue shift fits. The settings on record: 20 mM ADA, 50 mM NaCl, pH 6.5, 25 C, two binding areas TAB1 and TAB2.

Regarding GroP trimer, the Kd (300 uM protein) came to 3500 µM.

In the case of GroP pentamer, the Kd (200 uM protein) is 500 µM.

(Values after PMC11181022, “The molecular architecture of Lactobacillus S-layer: Assembly and attachment to teichoic acids” (Proceedings of the National Academy of Sciences of the …, 2024).)
